{
  "source": "patent US20260317367A1",
  "about": "“SALTS INCLUDING CRYSTALLINE SALTS OF 25-HYDROXY-CHOLEST-5-EN-3-SULFATE AND METHODS FOR PREPARING SAME” (Durect Corporation, priority 2022, published 2026)",
  "assay_type_in_all_cases": "physicochemical",
  "key": {"[1]": {"assay": "Angle of repose of 25HC3S salts", "conditions": "for Flow Property per USP<1174> Powder Flow: classification by angle of repose", "procedure,_shortened": "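About 2 g of salt powder was poured through a 7 mm inner-diameter tube into a 21.14 mm rubber O-ring, forming a cone of fixed diameter. Cone height was measured with calipers and the angle of repose was calculated from it. Flow was classified per USP<1174>.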"}, "[2]": {"assay": "Solubility of 25HC3S salts after one day at room temperature (HPLC, as free acid)", "procedure,_shortened": "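HPLC quantified the clear supernatant after centrifugation, with organic-solvent samples diluted in water:MeOH 95:5 and aqueous ones undiluted; results are mg/mL as free acid (LOD 0.0007 mg/mL). Each salt was first equilibrated as a suspension with excess solid for one day on a room-temperature shaker.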"}, "[3]": {"assay": "Solid-state chemical stability of 25HC3S salts at 2-8° C., 60° C. and 80° C. (HPLC assay and degradation products)", "conditions": "for % Impurities, Total / % Impurities, 25-HC: ND = Not Detected; for % Impurities, 25-HC: 25-Hydroxy-Cholesterol; for % Recovery: vs 2-8° C.", "procedure,_shortened": "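Crystalline 25HC3S salts (~25 mg powder per vial) stored at 2-8° C. or 80° C., pulled at 3 and 6 weeks; some 3-week 2-8° C. vials moved to 60° C. for 1 week. Dissolved in 100% methanol (sonication/vortexing, centrifugation or dilution), then HPLC against 25HC3S sodium standards (0.75-1.25 mg/mL) for assay and degradants.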"}, "[4]": {"assay": "Hausner ratio and compressibility index of 25HC3S salts", "conditions": "for Compressibility Index: Table C3 heads this index in %", "procedure,_shortened": "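Powder poured into a 5 mL graduated cylinder to about 5.0 mL (Vo), tapped 200 then 100 more times on a hard surface; final volume Vf recorded after 300 taps. Compressibility index and Hausner ratio calculated from Vo and Vf; flow character classed per USP <1174>.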"}, "[5]": {"assay": "Appearance (color, clumping, flowability) of stored 25HC3S salts"}, "[6]": {"conditions": "listed as 25HC3S tromethammonium"}, "[7]": {"conditions": "2-8° C., 3 wk, listed as 25HC3S tromethammonium"}, "[8]": {"conditions": "80° C., 3 wk, listed as 25HC3S tromethammonium"}, "[9]": {"conditions": "80° C., 5 wk, listed as 25HC3S tromethammonium"}, "[10]": {"conditions": "80° C., 5 wk, 50400 min, listed as 25HC3S tromethammonium"}, "[11]": {"conditions": "room temperature, one day, listed as crystalline 25HC3S benzathine"}, "[12]": {"conditions": "room temperature, one day, listed as benzathine salt of 25HC3S"}, "[13]": {"conditions": "2-8° C., 3 wk, listed as 25HC3S benzathine"}, "[14]": {"conditions": "80° C., 3 wk, listed as 25HC3S benzathine"}, "[15]": {"conditions": "80° C., 5 wk, 50400 min, listed as 25HC3S benzathine"}},
  "note": "Counter-ions that a name gives are not always drawn.",
  "data": [
    {"smiles": "CC(CCCC(C)(C)O)C1CCC2C3CC=C4CC(OS(=O)(=O)O)CCC4(C)C3CCC12C", "note": "(stereo not drawn) [Salt #8]", "values": [
      {"measurement": "Flow Property per USP<1174> Powder Flow", "setting": "[1]; [6]", "value": "Fair - aid not needed"},
      {"measurement": "Angle of Repose", "setting": "[1]; [6]", "value": 40.2, "unit": "degrees"},
      {"measurement": "Angle of Repose, Rounded Whole Number", "setting": "[1]; [6]", "value": 40, "unit": "degrees"},
      {"measurement": "Solubility in FaSSGF (in words)", "setting": "[2]; room temperature, one day", "value": "high solubility"},
      {"measurement": "Solubility in FaSSIF (in words)", "setting": "[2]; room temperature, one day", "value": "high solubility"},
      {"measurement": "Solubility in FeSSIF (in words)", "setting": "[2]; room temperature, one day", "value": "high solubility"},
      {"measurement": "Solubility in saline / 0.9% sodium chloride (in words)", "setting": "[2]; room temperature, one day, listed as crystalline 25HC3S tromethammonium", "value": "low solubility"},
      {"measurement": "Assay", "setting": "[3]; 2-8° C., 3 wk, 30240 min, listed as 25HC3S tromethammonium", "value": 99.4, "unit": "% w/w"},
      {"measurement": "% Impurities, Total", "setting": "[3]; [7]", "value": 0.9, "unit": "%"},
      {"measurement": "Assay", "setting": "[3]; 2-8° C., 5 wk, 50400 min, listed as 25HC3S tromethammonium", "value": 105.4, "unit": "% w/w"},
      {"measurement": "% Impurities, Total", "setting": "[3]; 2-8° C., 5 wk, listed as 25HC3S tromethammonium", "value": 0.7, "unit": "%"},
      {"measurement": "% Impurities, 25-HC", "setting": "[3]; [7]", "value": 0.1, "unit": "%"},
      {"measurement": "% Impurities, 25-HC", "setting": "[3]; [8]", "value": 0.1, "unit": "%"},
      {"measurement": "% Impurities, 25-HC", "setting": "[3]; [9]", "value": 2.1, "unit": "%"},
      {"measurement": "Stressed stability at 80° C. (in words)", "setting": "[3]; 80° C.", "value": "good, stressed stability"},
      {"measurement": "Physical and chemical solid-state stability (comments)", "setting": "[3]; 80° C., 3 weeks, listed as 25HC3S Tromethammonium", "value": "Stable after 3 weeks at 80 °C"},
      {"measurement": "% Recovery", "setting": "[3]; 80° C., 3 wk, 30240 min, listed as 25HC3S tromethammonium, 30240 min", "value": 99.8, "unit": "%"},
      {"measurement": "Assay", "setting": "[3]; 80° C., 3 wk, 30240 min, listed as 25HC3S tromethammonium", "value": 99.2, "unit": "% w/w"},
      {"measurement": "% Impurities, Total", "setting": "[3]; [8]", "value": 1.2, "unit": "%"},
      {"measurement": "% Recovery, 2-8° C./5 wk vs 80° C./5 wk", "setting": "[3]; [10]", "value": 91.1, "unit": "%"},
      {"measurement": "Assay", "setting": "[3]; [10]", "value": 96.0, "unit": "% w/w"},
      {"measurement": "% Impurities, Total", "setting": "[3]; [9]", "value": 12.3, "unit": "%"},
      {"measurement": "Stability after 3 weeks at 80° C. (in words)", "setting": "[3]; solid state, 80° C., 3 weeks", "value": "stable"},
      {"measurement": "degraded at 840 h", "setting": "[3]; solid state, 80° C., 5 weeks, read-out: Degradation based on % Recovery to the 2-8° C. control samples", "value": "~9", "unit": "%"},
      {"measurement": "Compressibility Index", "setting": "[4]; [6]", "value": 28},
      {"measurement": "Hausner Ratio", "setting": "[4]; [6]", "value": 1.39},
      {"measurement": "Appearance", "setting": "[5]; [7]", "value": "White, free flowing powder with clumping"},
      {"measurement": "Appearance", "setting": "[5]; 2-8° C., 5 wk", "value": "White, free flowing powder with clumping"},
      {"measurement": "Appearance", "setting": "[5]; [8]", "value": "White, free flowing powder with clumping"},
      {"measurement": "Appearance", "setting": "[5]; 80° C., 5 wk", "value": "White, free flowing powder with clumping"}
    ]},
    {"smiles": "CC(CCCC(C)(C)O)C1CCC2C3CC=C4CC(OS(=O)(=O)O)CCC4(C)C3CCC12C", "note": "(stereo not drawn) [Salt #9]", "values": [
      {"measurement": "Flow Property per USP<1174> Powder Flow", "setting": "[1]; listed as 25HC3S benzathine", "value": "Passable - may hang up"},
      {"measurement": "Angle of Repose", "setting": "[1]; listed as 25HC3S benzathine", "value": 43.7, "unit": "degrees"},
      {"measurement": "Angle of Repose, Rounded Whole Number", "setting": "[1]; listed as 25HC3S benzathine", "value": 44, "unit": "degrees"},
      {"measurement": "Solubility in 5% Dextrose", "setting": "[2]; 5% dextrose, room temperature, one day, as free acid, LOD 0.0007 mg/mL", "value": "No solubilized drug was detected"},
      {"measurement": "Solubility in FaSSGF (in words)", "setting": "[2]; [11]", "value": "low solubility"},
      {"measurement": "Solubility in FaSSIF (in words)", "setting": "[2]; [12]", "value": "low solubility"},
      {"measurement": "Solubility in FaSSGF", "setting": "[2]; Fasted State Simulated Gastric Fluid, pH 1.6, room temperature, one day, as free acid, LOD 0.0007 mg/mL", "value": "no solubilized drug was detected"},
      {"measurement": "Solubility in FaSSIF", "setting": "[2]; Fasted State Simulated Intestinal Fluid, room temperature, one day, as free acid, 1440 min", "value": 4, "unit": "µg/mL"},
      {"measurement": "Solubility in FeSSIF (in words)", "setting": "[2]; [12]", "value": "low solubility"},
      {"measurement": "Solubility in FeSSIF", "setting": "[2]; Fed State Simulated Intestinal Fluid, pH 4.9 to 5.0, room temperature, one day, as free acid, 1440 min", "value": 25, "unit": "µg/mL"},
      {"measurement": "Solubility in all aqueous and organic solvents (in words)", "setting": "[2]; all the aqueous and organic solvents examined", "value": "lowest solubility"},
      {"measurement": "Solubility in saline / 0.9% sodium chloride (in words)", "setting": "[2]; [11]", "value": "low solubility"},
      {"measurement": "solubility at 24 h", "setting": "[2]; water, room temperature, one day, as 25HC3S free acid, read-out: Solubility in water", "value": 6, "unit": "µg/mL"},
      {"measurement": "Assay", "setting": "[3]; 2-8° C., 3 wk, 30240 min, listed as 25HC3S benzathine", "value": 87.6, "unit": "% w/w"},
      {"measurement": "% Impurities, Total", "setting": "[3]; [13]", "value": 64.0, "unit": "%"},
      {"measurement": "Assay", "setting": "[3]; 2-8° C., 5 wk, 50400 min, listed as 25HC3S benzathine", "value": 77.1, "unit": "% w/w"},
      {"measurement": "% Impurities, Total", "setting": "[3]; 2-8° C., 5 wk, listed as 25HC3S benzathine", "value": 64.2, "unit": "%"},
      {"measurement": "degradation by area normalization", "setting": "[3]; 3 and 5 weeks, 2-8° C. and 80° C.", "value": "normalization were all approximately 64%-65% indicating that thermal"},
      {"measurement": "Change of assay value (in words)", "setting": "[3]; 3 weeks and 5 weeks, 2-8° C. and 80° C.", "value": "dropped at a similar rate"},
      {"measurement": "assay drop (comments)", "setting": "[3]; 3 weeks at 2-8° C. and 80° C. as well as after 5 weeks", "value": "The assay dropped at a similar rate after 3 weeks at 2-8 °C and 80 °C"},
      {"measurement": "% Recovery", "setting": "[3]; 80° C., 3 wk, 30240 min, listed as 25HC3S benzathine, 30240 min", "value": 97.4, "unit": "%"},
      {"measurement": "Assay", "setting": "[3]; 80° C., 3 wk, 30240 min, listed as 25HC3S benzathine", "value": 85.3, "unit": "% w/w"},
      {"measurement": "% Impurities, Total", "setting": "[3]; [14]", "value": 64.3, "unit": "%"},
      {"measurement": "% Recovery, 2-8° C./5 wk vs 80° C./5 wk", "setting": "[3]; [15]", "value": 91.8, "unit": "%"},
      {"measurement": "Assay", "setting": "[3]; [15]", "value": 70.8, "unit": "% w/w"},
      {"measurement": "% Impurities, Total", "setting": "[3]; 80° C., 5 wk, listed as 25HC3S benzathine", "value": 65.3, "unit": "%"},
      {"measurement": "degraded", "setting": "[3]; solid state, 3 weeks and 5 weeks, 2-8° C. and 80° C., read-out: Degradation by area normalization", "value": "64 to 65", "unit": "%"},
      {"measurement": "Compressibility Index", "setting": "[4]; listed as 25HC3S benzathine", "value": 29},
      {"measurement": "Hausner Ratio", "setting": "[4]; listed as 25HC3S benzathine", "value": 1.40},
      {"measurement": "Appearance", "setting": "[5]; [13]", "value": "White, free flowing powder with some"},
      {"measurement": "Appearance", "setting": "[5]; 2-8° C., 5 wk", "value": "White, free flowing powder with clumping"},
      {"measurement": "Appearance", "setting": "[5]; [14]", "value": "White, free flowing powder with clumping"},
      {"measurement": "Appearance", "setting": "[5]; 80° C., 5 wk", "value": "White, free flowing powder with clumping"}
    ]}
  ]
}
